Experimental data as given in patent publication US6713623B2, “Tetraphosphonate bicyclic trisanhydrides” (Pharmasset, Ltd., priority 1996, dated 2004).

Columns and labels:
tumors = conditions: quick conversion into the inactive β-glucuronide after administration; cited from earlier work
IMPDH type I = IMPDH type I (Homo sapiens, UniProt P20839); conditions: Carr et al.; read-out: Ki, IMPDH type I expressed in normal cells; cited from earlier work
glucuronosyltransferases = test: glucuronidation by glucuronosyltransferases in vitro; assay type: in vitro ADME; conditions: parallel experiments
B and T lymphocyte = conditions: cited from earlier work
[1] = test system: inosine monophosphate dehydrogenase (IMPDH); conditions: Marquez et al., J. Med. Chem. 1986; cited from earlier work
human IMPDH type II = human IMPDH type II (Homo sapiens, UniProt P12268); test: inhibitory activity against human IMPDH type II; assay type: biochemical; conditions: 100 μM NAD, 50 μM IMP, 25 nM enzyme, pH 8.0; read-out: Ki, inhibitor of IMPDH type II
[2] = test system: K562 erythroleucemic cells; test: anti-proliferative activity against K562 cells; assay type: cell-based; conditions: Homo sapiens, read-out: IC50, growth of K562 cells
Description: The compounds of structure 1 are stable in plasma at room temperature for at least several days. It is assayed for both inhibitory activity against human IMPDH type II and for anti-proliferative activity against K562 erythroleucemic cells. […] The ability to induce differentiation in K562 cells is also estimated by determining the fraction of benzidine positive cells converted following incubation with β-methylene-MAD.

IMPDH type I, sequence (P20839 whole entry): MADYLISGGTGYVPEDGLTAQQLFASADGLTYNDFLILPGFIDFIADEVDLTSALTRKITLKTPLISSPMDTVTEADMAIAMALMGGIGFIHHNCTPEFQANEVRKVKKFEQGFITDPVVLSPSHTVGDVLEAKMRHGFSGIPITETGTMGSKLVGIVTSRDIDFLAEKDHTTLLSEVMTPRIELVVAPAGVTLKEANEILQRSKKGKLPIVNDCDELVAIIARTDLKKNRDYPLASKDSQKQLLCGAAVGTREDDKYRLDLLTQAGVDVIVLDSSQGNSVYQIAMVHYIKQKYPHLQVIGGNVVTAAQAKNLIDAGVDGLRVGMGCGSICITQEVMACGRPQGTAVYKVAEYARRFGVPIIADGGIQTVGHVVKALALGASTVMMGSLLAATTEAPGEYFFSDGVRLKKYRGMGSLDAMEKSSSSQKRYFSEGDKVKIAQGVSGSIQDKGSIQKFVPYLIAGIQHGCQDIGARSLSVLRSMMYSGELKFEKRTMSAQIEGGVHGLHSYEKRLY

| Ki (human IMPDH type II) [nM] | IC50 [2] [nM] | Compound | activity against tumors (tumors) | Ki (IMPDH type I) [nM] | glucuronidation by various glucuronosyltransferases (glucuronosyltransferases) | B and T lymphocyte proliferation (B and T lymphocyte) | inhibition of IMPDH [1] |
| --- | --- | --- | --- | --- | --- | --- | --- |
| – | – | COc1c(C)c2c(c(O)c1C/C=C(\C)CCC(=O)O)C(=O)OC2 [mycophenolic acid, Mycophenolic acid] | inactive | 33 to 37 | effectively glucuronidated | blocks | – |
| – | – | NC(=O)c1csc([C@@H]2O[C@H](COP(=O)(O)CP(=O)(O)OC[C@H]3O[C@@H](n4cnc5c(N)ncnc54)[C@H](O)[C@@H]3O)[C@@H](O)[C@H]2O)n1 [β-methylene TAD] | – | – | – | – | potent inhibitor |
| 300 | 6000 | COc1c(C)c2c(c(O)c1CC=C(C)CCCOP(=O)(O)CP(=O)(O)OCC1OC(n3cnc4c(N)ncnc43)C(O)C1O)C(=O)OC2 (stereo not drawn) [β-methylene-MAD, P^1-(adenosin-5-yl)-P^2-(mycophenol-5′-yl)methylenebis(phosphonate)] | – | – | completely resistant to glucuronidation | – | – |
